Laboratory results from ChEMBL document CHEMBL3600379, “Radiosynthesis and preliminary PET evaluation of glycogen synthase kinase 3β (GSK-3β) inhibitors containing [(11)C]methylsulfanyl, [(11)C]methylsulfinyl or [(11)C]methylsulfonyl groups” (Bioorg Med Chem Lett, 2015).

Experiments:
Format in all cases: ADME, organism-based
[1] = test system: Brain; assay: Drug uptake in brain of cold water-induced mouse stress model at 15 to 20 MBq, iv measured over 60 mins by PET image analysis relative to normal mouse; details: in vivo, 1 h
[2] = test system: Brain; assay: Drug uptake in brain of normal mouse at 15 to 20 MBq, iv measured at 15 mins by PET image analysis; details: in vivo, 0.25 h
[3] = test system: Brain; assay: Drug uptake in brain of cold water-induced mouse stress model at 15 to 20 MBq, iv measured at 30 mins by PET image analysis; details: in vivo, 0.5 h
[4] = test system: Brain; assay: Drug uptake in brain of normal mouse at 15 to 20 MBq, iv measured at 2 mins by PET image analysis; details: in vivo
[5] = test system: Brain; assay: Drug uptake in brain of cold water-induced mouse stress model at 15 to 20 MBq, iv measured at 2 mins by PET image analysis; details: in vivo
[6] = test system: Brain; assay: Drug uptake in brain of cold water-induced mouse stress model at 15 to 20 MBq, iv measured at 15 mins by PET image analysis; details: in vivo, 0.25 h
[7] = test system: Brain; assay: Drug uptake in brain of normal mouse at 15 to 20 MBq, iv measured at 30 mins by PET image analysis; details: in vivo, 0.5 h

Row | fold change (FC) [1] | SUV [2] | Drug uptake [3] | SUV [4] | SUV [5] | SUV [6] | Drug uptake [7] | Structure (SMILES)
1 | 2 | 0.3 | Not Active | 1 | 1.5 | 0.7 | Not Active | Cc1nnc(-c2ccc3occ(-c4ccc(S[11CH3])cc4)c3c2)o1
2 |  | 0.3 | Not Active | 0.5 | 0.8 | 0.3 | Not Active | Cc1nnc(-c2ccc3occ(-c4ccc([S+]([11CH3])[O-])cc4)c3c2)o1 (stereo not given)
3 | 2 | 0.2 | Not Active | 0.7 | 1.6 | 0.4 | Not Active | Cc1nnc(-c2ccc3occ(-c4ccc(S([11CH3])(=O)=O)cc4)c3c2)o1
